# Results: a melting point compilation (Tetko et al.; mined from patent text by program, amines drawn as free bases though some values may be those of a salt)
row,melting point,Compound
1,163 to 164 °C,CSc1nccc(C(C#N)C(=O)c2ccccc2)n1 (configuration not stated)
2,134 to 135 °C,COc1cccc(C(O)(Cc2ccncc2)c2cccc(OC)c2)c1
3,208 to 210 °C,FC(F)(F)Oc1ccc2nc(-c3ccccc3)[nH]c2c1
4,213 to 214 °C,CNc1nc(C)c(-c2ccnc(Nc3ccc(N4CCN(C(C)=O)CC4)cc3)n2)s1
5,62 to 65 °C,C#CCOc1ccc2c(c1)c(-c1ccc(C(C)C)cc1)nc(=O)n2Cc1cccc(OC(C)(C)C)n1
6,73 to 75 °C,Nc1ccc(OCc2ccc(Cl)cc2)cc1F
7,232 to 233 °C,CCCNC(=O)c1nc(-c2ccccc2)c(-c2ccc(=O)[nH]n2)s1
8,219 to 220 °C,C#Cc1cnc2c(NC(=O)c3c(Cl)cccc3Cl)cccc2c1
9,150 to 151 °C,Cc1ccc(CC(C(N)=O)c2ccccc2)cc1 (configuration not stated)
10,142 to 144 °C,Cc1cccc(Nc2cc(Nc3cccc(OCCCN(C)C)c3)ncn2)c1
11,212 to 215 °C,CCC(=O)Nc1nc2ccc(Cl)cc2n2c(CC)nnc12
12,91.9 °C,C#CCOc1cc(Oc2cccc(Cl)c2Cl)ncn1
13,120 to 123 °C,COC(=O)c1cc(Cl)c(Cl)cc1C#N

# The next lines start with the molecule.
row,Compound,melting point
1,Nc1cccc(CN2CCN(C(c3ccccc3)c3ccccc3)CC2)c1,104 to 106 °C
2,OCC1OC(n2c(Br)nc3cc(Cl)c(Cl)cc32)CC1O (configuration not stated),187 to 188 °C
3,COc1cccc(C(=O)O)c1N,172 to 175 °C
4,COc1cc2c(c(OC)c1OC)C(=O)CC2,114 to 115 °C
5,CC(C)OCC(COC(C)C)OCn1cnc2cnc(N)nc21,89 to 90 °C
6,CC1(C)CC(OC(=O)c2cccc(C(=O)OC3CC(C)(C)N(OC4CCCCC4)C(C)(C)C3)c2)CC(C)(C)N1OC1CCCCC1,135 to 141 °C
7,C=CS(=O)CCNC(=O)CCS(=O)(=O)C=C (configuration not stated),93 °C
8,CCOC(=O)N[C@H]1CC=C[C@H]2CNC(=O)[C@H]12 (racemic),160 to 164 °C
9,CCOc1ccccc1C=[N+]([O-])C1CCCCC1,124 °C
10,CCOc1nn(-c2ccc(C(F)(F)F)cn2)cc1CCCOc1cccc(CCC(=O)O)c1,88 to 89 °C
11,COc1cc(OC)nc(Oc2cccc(Oc3nc(OC)cc(OC)n3)c2CO)n1,122 °C
12,CN(C)C1CCc2c(ccc(O)c2C(N)=O)C1 (configuration not stated),65 to 66 °C
13,COC(=O)C(Oc1ccc(-c2ccc(Cl)cc2)cc1)C(F)(F)F (configuration not stated),104 to 105 °C
14,CC(=O)NC[C@H]1CN(c2ccc(N3CCC(O)(COS(C)(=O)=O)CC3)c(F)c2)C(=O)O1,136 to 138 °C
15,COCCCNC(N)=O,128 to 130 °C
16,COc1cc(C=CC(=O)c2c(OCC=C(C)C)ccc3c(C)cc(=O)oc23)cc(OC)c1OC,148 to 150 °C
17,CCCCCCCCCCCC(=O)NC(=O)OCc1nc(C(C)C)c(Sc2cc(Cl)cc(Cl)c2)n1CC,100 to 102 °C
18,CCC(C)(C)c1cc(C(=O)CI)cc(C(C)(C)CC)c1O,76 to 77 °C
19,COCCO[C@@H]1c2ccn3c(-c4ccccc4)c(C)nc3c2N[C@H](c2ccccc2)[C@H]1O,190 to 192 °C
20,COC(=O)CCCCCNC(=O)/C=C/C=C/c1ccccc1,125 to 127 °C
21,O=C(Cn1cccc(O)c1=O)NCCCCCCNC(=O)Cn1cccc(O)c1=O,240 to 242 °C
22,COC(=O)c1c(C(=O)OC)c2n(c1C)Cc1ccccc1C2,152 to 154 °C
23,COC(=O)N1CCC(c2ccccc2)C(O)C1 (configuration not stated),139 to 140 °C
24,CCOc1ccc(C(=O)OC)cc1C(=N)N,133 to 135 °C
25,CC(=O)Nc1ccc(-n2nc(CCCCCC(=O)O)c3c2CCC3)cc1,149 to 150 °C
26,Nc1cc2c(cc1C(=O)c1ccccc1)OCO2,160 to 161 °C
27,CCNC(=O)[C@H](C)C[C@H](O)[C@H](CC1CCCCC1)NC(=O)[C@H](Cc1cscn1)NC(=O)[C@@H](CC(=O)N(C)Cc1ccccc1)Cc1ccccc1,148 to 150 °C
28,O=[N+]([O-])c1ccc(-c2oncc2CCCO)cc1,132 to 133 °C
29,CCOC(=O)N1CCCOc2cc(N)ccc21,140 to 143 °C
